Results: patent US5279956A, “Activated protein C polypeptides and anti-peptide antibodies, diagnostic methods and systems for inhibiting activated protein C” (The Scripps Research Institute, priority 1991, dated 1994)
No end group written: not given here.

Target: T1, APC (Homo sapiens, UniProt P04070)
T1 construct: begins at amino acid residue position 158 and ends at 419; The light chain is 155 amino acid residues in length; tissue Factor IX concentrate from Immuno AG, Vienna; thrombin from Enzyme Research Laboratories
T1 sequence (P04070 212-461): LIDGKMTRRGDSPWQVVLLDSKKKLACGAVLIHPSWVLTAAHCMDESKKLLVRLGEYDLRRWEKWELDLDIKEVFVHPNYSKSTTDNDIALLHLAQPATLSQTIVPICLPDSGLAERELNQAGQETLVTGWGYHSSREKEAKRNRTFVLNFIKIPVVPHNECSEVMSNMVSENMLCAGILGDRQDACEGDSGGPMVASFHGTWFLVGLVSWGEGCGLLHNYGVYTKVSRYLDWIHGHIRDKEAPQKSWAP
T1 sequence (P04070 43-197): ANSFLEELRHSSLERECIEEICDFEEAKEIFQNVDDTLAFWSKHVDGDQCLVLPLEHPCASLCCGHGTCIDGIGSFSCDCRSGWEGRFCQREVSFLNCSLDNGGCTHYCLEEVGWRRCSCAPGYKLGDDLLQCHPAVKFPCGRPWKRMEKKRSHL
Experiment: Activated partial thromboplastin time (APTT) coagulation assay of APC anticoagulant activity
Format: biochemical
Details: APTT assay in the presence of APC
Protocol: The effect of the synthetic peptides on APC anticoagulant activity were determined using the APTT assay in the presence of either normal citrate anticoagulated plasma (NHP) or protein S depleted plasma (PSDP). The assays were performed essentially as described. See Marlar et al., Blood, 59:1067-1072 […]; Suzuki et al., J. Biol. Chem., 258:163-168 (1983); Gruber et al., Blood, 73:639-642 (1989); Ohlin et al., Biochem., 29:644-651 (1990). NHP was purchased from George King Bio-Medical, Inc. (Overland Park, Kans.). PSDP was prepared from a normal human citrate-anticoagulated plasma pool from ten healthy donors. Protein S was immunodepleted from the NHP by immunoaffinity chromatography of NHP over an anti-protein S antibody column to form PSDP. The anti-protein S antibody column was prepared by coupling 100 mg of a monoclonal, high-affinity, calcium-independent anti-PS antibody, designated S7, to 30 ml of CNBr-activated Sepharose 4B (Pharmacia) as described in Example 2c1). Residual total protein S content in the resultant PSDP was less than 0.1% protein S as determined by quantitative immunoblotting, by solid-phase ELISA for total protein S and by electroimmunoassay.
For the APTT assay, APC was prepared as described in Example 2c2). The specific anticoagulant activity of APC was determined to be 250 Units/mg. The concentration of the APC used in the assay was initially optimized with respect to the sensitivity of the assay towards APC-induced prolongation of clotting time compared to clotting time without APC.
Once the optimal concentration of APC was determined, peptides from Table 2 were then separately admixed for a final concentration of 500 μM with 10 nM APC in 100 μl of TBS-BSA at pH 7.4 to form peptide-APC admixtures. The resulting admixtures were maintained for seven minutes at 37° C. Separate aliquots of peptides maintained under the same conditions in the absence of APC served as controls for the inhibitory effect of synthetic peptides on APC anticoagulant activity. After the maintenance period, 100 μl of NHP and 100 μl APTT-reagent Thrombosil (Ortho Diagnostics, Raritan, N.J.) were admixed into each peptide admixture and maintained for 200 seconds at 37° C. to form a pre-coagulation admixture. In some experiments, PSDP was used in the place of NHP to determine the effect of Protein S on the assay system. Coagulation was then initiated by the admixture of 100 μl of 30 mM CaCl2 in TBS prewarmed to 37° C. to each of the pre-coagulation admixtures. The time for clot formation was measured by an Electra 700 Automatic Coagulation Timer (Medical Laboratory Automation, Inc., Mount Vernon, N.Y.). Each peptide's effect was determined in duplicate.
Additional assays were performed to compare the specificity of the inhibitory effect of peptide-(390-404) on APC anticoagulant activity. Both APTT and Xa-1-stage assays were performed with peptide-(390-404) and with the same peptide synthesized in the reverse order, peptide-(404-390), at concentrations of the peptides ranging from 0 μM to 40 μM. In APTT assays performed as described above in the presence of NHP, APC was used at a concentration of 2.5 nM. For APTT assays in the presence of PSDP, APC was used at a concentration of 5 nM. […]
Once the optimal concentration of APC was determined, anti-(390-404) was separately admixed ranging in concentration from 0.0 to 240 nM with APC in 200 μl of TBS-BSA and 30 mM CaCl2 at pH 7.4 to form an anti-(390-404)-APC immunoreaction admixture pre-maintenance solution. […]

In the case of “KRNRTFVLNFIKIPV-NH2 [peptide-(311-325), KRNRTFVLNFIKIPV]”, the IC50 is reported as 20 µM and the IC90 is reported as 50 µM.
